In ChEMBL document CHEMBL1909046, “DrugMatrix in vitro pharmacology data”:

Molecular target: Beta-3 adrenergic receptor (Homo sapiens, UniProt P13945)
Assay: DRUGMATRIX: Adrenergic beta3 radioligand binding (ligand: [125I] Cyanopindolol)
Format: cell membranes, HEK293, Membrane
Conditions: hek293; Not Active = under 50% inhibition at 10 µM

Sequence of Beta-3 adrenergic receptor (P13945 whole entry): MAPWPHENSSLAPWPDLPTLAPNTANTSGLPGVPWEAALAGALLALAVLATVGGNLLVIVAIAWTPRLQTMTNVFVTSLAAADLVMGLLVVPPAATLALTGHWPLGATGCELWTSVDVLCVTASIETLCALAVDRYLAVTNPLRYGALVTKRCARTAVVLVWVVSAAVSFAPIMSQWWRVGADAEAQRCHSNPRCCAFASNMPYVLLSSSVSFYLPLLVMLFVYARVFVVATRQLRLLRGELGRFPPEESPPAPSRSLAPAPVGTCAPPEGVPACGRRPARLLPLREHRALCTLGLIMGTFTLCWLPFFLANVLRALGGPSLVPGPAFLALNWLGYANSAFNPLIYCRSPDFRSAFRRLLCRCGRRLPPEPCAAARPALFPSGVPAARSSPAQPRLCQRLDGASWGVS

Compound | IC50
C[C@]12CC[C@@H]3c4ccc(O)cc4CC[C@H]3[C@@H]1C[C@@H](O)[C@@H]2O [ESTRIOL] | Not Active
C#C[C@]1(O)CC[C@H]2[C@@H]3CCC4=CC(=O)CC[C@]4(C)[C@H]3CC[C@@]21C [ETHISTERONE] | Not Active
CC(O)(P(=O)(O)O)P(=O)(O)O [ETIDRONIC ACID] | Not Active
CC(C)(C(=O)O)c1ccc(C(O)CCCN2CCC(C(O)(c3ccccc3)c3ccccc3)CC2)cc1 (stereo unspecified) [FEXOFENADINE] | Not Active
CN1CCN(c2c(F)cc3c(=O)c(C(=O)O)cn(CCF)c3c2F)CC1 [FLEROXACIN] | Not Active
O=c1[nH]c(=O)n([C@H]2C[C@H](O)[C@@H](CO)O2)cc1F [FLOXURIDINE] | Not Active
COC(=O)Nc1nc2cc(C(=O)c3ccc(F)cc3)ccc2[nH]1 [FLUBENDAZOLE] | Not Active

Molecular target: 5-hydroxytryptamine receptor 6 (Homo sapiens, UniProt P50406); also: in other assays of this panel Not Active means under 50% inhibition at 10 µM
Format: cell membranes, HeLa, Membrane
Conditions: hela

Sequence of 5-hydroxytryptamine receptor 6 (P50406 whole entry): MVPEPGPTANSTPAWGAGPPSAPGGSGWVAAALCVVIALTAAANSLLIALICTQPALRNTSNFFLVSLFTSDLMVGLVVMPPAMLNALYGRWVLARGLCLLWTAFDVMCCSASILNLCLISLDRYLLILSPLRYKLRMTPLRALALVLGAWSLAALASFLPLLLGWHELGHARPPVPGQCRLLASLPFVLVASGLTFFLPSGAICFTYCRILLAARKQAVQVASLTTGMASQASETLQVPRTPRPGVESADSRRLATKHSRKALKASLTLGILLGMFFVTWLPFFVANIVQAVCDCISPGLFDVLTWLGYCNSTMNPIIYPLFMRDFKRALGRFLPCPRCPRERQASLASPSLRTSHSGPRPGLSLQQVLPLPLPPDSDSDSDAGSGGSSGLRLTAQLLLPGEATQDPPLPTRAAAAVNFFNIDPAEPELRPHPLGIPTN

Compound | IC50
C[C@]12CC[C@@H]3c4ccc(O)cc4CC[C@H]3[C@@H]1C[C@@H](O)[C@@H]2O [ESTRIOL] | Not Active
C#C[C@]1(O)CC[C@H]2[C@@H]3CCC4=CC(=O)CC[C@]4(C)[C@H]3CC[C@@]21C [ETHISTERONE] | Not Active
CC(O)(P(=O)(O)O)P(=O)(O)O [ETIDRONIC ACID] | Not Active
CC(C)(C(=O)O)c1ccc(C(O)CCCN2CCC(C(O)(c3ccccc3)c3ccccc3)CC2)cc1 (stereo unspecified) [FEXOFENADINE] | Not Active
CN1CCN(c2c(F)cc3c(=O)c(C(=O)O)cn(CCF)c3c2F)CC1 [FLEROXACIN] | Not Active
O=c1[nH]c(=O)n([C@H]2C[C@H](O)[C@@H](CO)O2)cc1F [FLOXURIDINE] | Not Active
COC(=O)Nc1nc2cc(C(=O)c3ccc(F)cc3)ccc2[nH]1 [FLUBENDAZOLE] | Not Active

Molecular target: T1, Substance-K receptor (Homo sapiens, UniProt P21452); also: in other assays of this panel Not Active means under 50% inhibition at 10 µM
T1 sequence (P21452 whole entry): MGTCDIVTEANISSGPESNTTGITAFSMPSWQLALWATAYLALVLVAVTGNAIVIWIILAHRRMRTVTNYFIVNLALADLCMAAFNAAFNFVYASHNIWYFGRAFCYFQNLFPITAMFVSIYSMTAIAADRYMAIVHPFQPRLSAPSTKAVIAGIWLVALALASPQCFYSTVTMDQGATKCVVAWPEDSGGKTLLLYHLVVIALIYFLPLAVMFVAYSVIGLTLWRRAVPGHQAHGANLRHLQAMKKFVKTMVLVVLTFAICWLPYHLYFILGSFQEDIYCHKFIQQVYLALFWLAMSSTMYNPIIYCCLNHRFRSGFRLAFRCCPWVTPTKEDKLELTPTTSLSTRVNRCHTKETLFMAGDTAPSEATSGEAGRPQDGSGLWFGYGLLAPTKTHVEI
Format: cell membranes, CHO, Membrane
Conditions: cho

Compound | IC50
C[C@]12CC[C@@H]3c4ccc(O)cc4CC[C@H]3[C@@H]1C[C@@H](O)[C@@H]2O [ESTRIOL] | Not Active
C#C[C@]1(O)CC[C@H]2[C@@H]3CCC4=CC(=O)CC[C@]4(C)[C@H]3CC[C@@]21C [ETHISTERONE] | Not Active
CC(O)(P(=O)(O)O)P(=O)(O)O [ETIDRONIC ACID] | Not Active
CC(C)(C(=O)O)c1ccc(C(O)CCCN2CCC(C(O)(c3ccccc3)c3ccccc3)CC2)cc1 (stereo unspecified) [FEXOFENADINE] | Not Active
CN1CCN(c2c(F)cc3c(=O)c(C(=O)O)cn(CCF)c3c2F)CC1 [FLEROXACIN] | Not Active
O=c1[nH]c(=O)n([C@H]2C[C@H](O)[C@@H](CO)O2)cc1F [FLOXURIDINE] | Not Active
COC(=O)Nc1nc2cc(C(=O)c3ccc(F)cc3)ccc2[nH]1 [FLUBENDAZOLE] | Not Active

Molecular target: T2, D(4) dopamine receptor (Homo sapiens, UniProt P21917)
T2 sequence (P21917 whole entry): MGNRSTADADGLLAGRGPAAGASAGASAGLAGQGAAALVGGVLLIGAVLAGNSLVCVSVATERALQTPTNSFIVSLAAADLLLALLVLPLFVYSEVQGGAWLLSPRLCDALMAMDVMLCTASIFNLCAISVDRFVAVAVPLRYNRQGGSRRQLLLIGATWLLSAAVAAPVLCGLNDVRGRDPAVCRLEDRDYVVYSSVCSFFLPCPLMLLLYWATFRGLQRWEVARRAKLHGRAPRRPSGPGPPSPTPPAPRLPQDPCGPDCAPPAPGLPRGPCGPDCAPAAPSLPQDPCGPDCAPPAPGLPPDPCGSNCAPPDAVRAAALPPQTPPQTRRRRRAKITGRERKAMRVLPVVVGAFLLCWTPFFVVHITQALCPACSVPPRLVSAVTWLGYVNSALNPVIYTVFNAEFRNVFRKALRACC
Assay: DRUGMATRIX: Dopamine D4.2 radioligand binding (ligand: [3H] Spiperone)
Format: cell membranes, CHO-K1, Membrane
Conditions: cho-k1; Not Active = under 50% inhibition at 10 µM

Compound | IC50
C[C@]12CC[C@@H]3c4ccc(O)cc4CC[C@H]3[C@@H]1C[C@@H](O)[C@@H]2O [ESTRIOL] | Not Active
C#C[C@]1(O)CC[C@H]2[C@@H]3CCC4=CC(=O)CC[C@]4(C)[C@H]3CC[C@@]21C [ETHISTERONE] | Not Active
CC(O)(P(=O)(O)O)P(=O)(O)O [ETIDRONIC ACID] | Not Active
CC(C)(C(=O)O)c1ccc(C(O)CCCN2CCC(C(O)(c3ccccc3)c3ccccc3)CC2)cc1 (stereo unspecified) [FEXOFENADINE] | Not Active
CN1CCN(c2c(F)cc3c(=O)c(C(=O)O)cn(CCF)c3c2F)CC1 [FLEROXACIN] | Not Active
O=c1[nH]c(=O)n([C@H]2C[C@H](O)[C@@H](CO)O2)cc1F [FLOXURIDINE] | Not Active
COC(=O)Nc1nc2cc(C(=O)c3ccc(F)cc3)ccc2[nH]1 [FLUBENDAZOLE] | Not Active

System: not listed separately
Assay: DRUGMATRIX: Interleukin IL-1 radioligand binding (ligand: [125I] interleukin 1beta)
Format: cell membranes, Membrane
Conditions: nih3t3; Not Active = under 50% inhibition at 10 µM

Compound | IC50 | Ki
C[C@]12CC[C@@H]3c4ccc(O)cc4CC[C@H]3[C@@H]1C[C@@H](O)[C@@H]2O [ESTRIOL] | Not Active | Not Active
C#C[C@]1(O)CC[C@H]2[C@@H]3CCC4=CC(=O)CC[C@]4(C)[C@H]3CC[C@@]21C [ETHISTERONE] | Not Active | Not Active
CC(O)(P(=O)(O)O)P(=O)(O)O [ETIDRONIC ACID] | Not Active | Not Active
CC(C)(C(=O)O)c1ccc(C(O)CCCN2CCC(C(O)(c3ccccc3)c3ccccc3)CC2)cc1 (stereo unspecified) [FEXOFENADINE] | Not Active | Not Active
CN1CCN(c2c(F)cc3c(=O)c(C(=O)O)cn(CCF)c3c2F)CC1 [FLEROXACIN] | Not Active | Not Active
O=c1[nH]c(=O)n([C@H]2C[C@H](O)[C@@H](CO)O2)cc1F [FLOXURIDINE] | Not Active | Not Active
COC(=O)Nc1nc2cc(C(=O)c3ccc(F)cc3)ccc2[nH]1 [FLUBENDAZOLE] | Not Active | Not Active

System: not listed separately
Assay: DRUGMATRIX: Purinergic P2X radioligand binding (ligand: [3H] alpha, beta-Methylene-ATP)
Format: cell membranes, Oryctolagus cuniculus, New Zealand albino, Urinary bladder, Membrane
Conditions: Not Active = under 50% inhibition at 10 µM

Compound | IC50 | Ki
C[C@]12CC[C@@H]3c4ccc(O)cc4CC[C@H]3[C@@H]1C[C@@H](O)[C@@H]2O [ESTRIOL] | Not Active | Not Active
C#C[C@]1(O)CC[C@H]2[C@@H]3CCC4=CC(=O)CC[C@]4(C)[C@H]3CC[C@@]21C [ETHISTERONE] | Not Active | Not Active
CC(O)(P(=O)(O)O)P(=O)(O)O [ETIDRONIC ACID] | Not Active | Not Active
CC(C)(C(=O)O)c1ccc(C(O)CCCN2CCC(C(O)(c3ccccc3)c3ccccc3)CC2)cc1 (stereo unspecified) [FEXOFENADINE] | Not Active | Not Active
CN1CCN(c2c(F)cc3c(=O)c(C(=O)O)cn(CCF)c3c2F)CC1 [FLEROXACIN] | Not Active | Not Active
O=c1[nH]c(=O)n([C@H]2C[C@H](O)[C@@H](CO)O2)cc1F [FLOXURIDINE] | Not Active | Not Active
COC(=O)Nc1nc2cc(C(=O)c3ccc(F)cc3)ccc2[nH]1 [FLUBENDAZOLE] | Not Active | Not Active
